Where two headings read alike, the source gives them in different places.
Test system: firefly luciferase activity
Experiment: Dual-Glo firefly/renilla luciferase reporter assay in cells
Assay type: cell-based
[1] = 24 h, read-out: Firefly Luciferase IC50 (μM)
[2] = 24 hrs compound treatment, starting from 3 uM, 1:3 dilution, 10 points, read-out: Firefly Luciferase IC50

| SMILES | IC50 [2] [µM] | IC50 [1] [µM] |
| --- | --- | --- |
| Cc1ccc(-c2nnn(CCO)n2)c(Nc2ccc(C(F)(F)F)cc2)c1 [Compound 243, 2-(5-(4-methyl-2-((4-(trifluoromethyl)phenyl)amino)phenyl)-2H-tetrazol-2-yl)ethanol] |  | < 0.1 |
| OC1(Cn2nnc(-c3ccccc3Nc3ccc(C(F)(F)F)cc3)n2)CSC1 [Compound 244, 3-[[5-[2-[4-(trifluoromethyl)anilino]phenyl]tetrazol-2-yl]methyl]thietan-3-ol] | < 0.1 |  |
| [O-][S+]1CC(O)(Cn2nnc(-c3ccccc3Nc3ccc(C(F)(F)F)cc3)n2)C1 (stereo not drawn) [Compound 245, 1-oxo-3-[[5-[2-[4-(trifluoromethyl)anilino]phenyl]tetrazol-2-yl]methyl]thietan-3-ol] | 0.1 to 1 |  |
| OCCn1nnc(-c2ccccc2Nc2ccc(SC(F)(F)F)cc2)n1 [Compound 248, 2-(5-(2-((4-((trifluoromethyl)thio)phenyl)amino)phenyl)-2H-tetrazol-2-yl)ethanol] | 0.1 to 1 |  |
| OCCn1nnc(-c2ccccc2Nc2cccc(Cl)c2)n1 [Compound 250, 2-(5-(2-((3-chlorophenyl)amino)phenyl)-2H-tetrazol-2-yl)ethanol] |  | 1 to 5 |
| OCCn1nnc(-c2ccccc2Nc2ccc(Cl)c(Cl)c2)n1 [Compound 251, 2-(5-(2-((3,4-dichlorophenyl)amino)phenyl)-2H-tetrazol-2-yl)ethanol] | 0.1 to 1 |  |
| OCCn1nnc(-c2cc(OC(F)F)ccc2Nc2ccc(C(F)(F)F)cc2)n1 [Compound 260, 2-(5-(5-(difluoromethoxy)-2-((4-(trifluoromethyl)phenyl)amino)phenyl)-2H-tetrazol-2-yl)ethanol] |  | < 0.1 |
| OCCn1nnc(-c2cc(OC(F)(F)F)ccc2Nc2ccc(C(F)(F)F)cc2)n1 [Compound 261, 2-(5-(5-(trifluoromethoxy)-2-((4-(trifluoromethyl)phenyl)amino)phenyl)-2H-tetrazol-2-yl)ethanol] |  | 0.1 to 1 |
| OCCn1nnc(-c2cc(C(F)(F)F)ccc2Nc2ccc(C(F)(F)F)cc2)n1 [Compound 262, 2-(5-(5-(trifluoromethyl)-2-((4-(trifluoromethyl)phenyl)amino)phenyl)-2H-tetrazol-2-yl)ethanol] |  | 0.1 to 1 |
| FC(F)(F)c1ccc(Nc2ccccc2-c2nnn(C3COCOC3)n2)cc1 [Compound 263, 2-(2-(1,3-dioxan-5-yl)-2H-tetrazol-5-yl)-N-(4-(trifluoromethyl)phenyl)aniline] | < 0.1 |  |

Continued, in another order:

| IC50 [2] [µM] | SMILES | IC50 [1] [µM] |
| --- | --- | --- |
| < 0.1 | OCCn1nnc(-c2ccccc2Nc2ccc(C(F)(F)F)c(Cl)c2)n1 [Compound 246, 2-(5-(2-((3-chloro-4-(trifluoromethyl)phenyl)amino)phenyl)-2H-tetrazol-2-yl)ethanol] |  |
| 1 to 5 | OCCn1nnc(-c2ccccc2Nc2cc(Cl)c(Cl)c(Cl)c2)n1 [Compound 253, 2-(5-(2-((3,4,5-trichlorophenyl)amino)phenyl)-2H-tetrazol-2-yl)ethanol] |  |
| < 0.1 | OCCn1nnc(-c2cc(Br)ccc2Nc2ccc(C(F)(F)F)cc2)n1 [Compound 254, 2-[5-[5-bromo-2-[4-(trifluoromethyl)anilino]phenyl]tetrazol-2-yl]ethanol] |  |
| < 0.1 | OCCn1nnc(-c2cc(C3CC3)ccc2Nc2ccc(C(F)(F)F)cc2)n1 [Compound 255, 2-(5-(5-cyclopropyl-2-((4-(trifluoromethyl)phenyl)amino)phenyl)-2H-tetrazol-2-yl)ethanol] |  |
| < 0.1 | CCc1ccc(Nc2ccc(C(F)(F)F)cc2)c(-c2nnn(CCO)n2)c1 [Compound 256, 2-[5-[5-ethyl-2-[4-(trifluoromethyl)anilino]phenyl]tetrazol-2-yl]ethanol] |  |
| 0.1 to 1 | NCC(CO)n1nnc(-c2ccccc2Nc2ccc(C(F)(F)F)cc2)n1 (stereo not drawn) [Compound 259, 3-amino-2-(5-(2-((4-(trifluoromethyl)phenyl)amino)phenyl)-2H-tetrazol-2-yl)propan-1-ol] |  |
| < 0.1 | OCC(CO)n1nnc(-c2ccccc2Nc2ccc(C(F)(F)F)cc2)n1 [Compound 264, 2-(5-(2-((4-(trifluoromethyl)phenyl)amino)phenyl)-2H-tetrazol-2-yl)propane-1,3-diol] |  |
| 0.1 to 1 | OCCn1nnc(-c2cc(C(F)F)ccc2Nc2ccc(C(F)(F)F)cc2)n1 [Compound 266, 2-[5-[5-(difluoromethyl)-2-[4-(trifluoromethyl)anilino]phenyl]tetrazol-2-yl]ethanol] |  |

Source: US11186554B2, “Non-fused tricyclic compounds” (VIVACE THERAPEUTICS, INC., priority 2017, dated 2021)
